# According to US6525001B1, “Substituted pyrimidine and pyridine herbicides” (Mid-American Commercialization Corporation, priority 1997, dated 2003):
# Tests used:
# Experiment in all cases: Test B pre-/postemergence
# Assay type in all cases: in vivo
# Parameters in all cases: key: 0 is no effect; 10 is complete control
# [1] = tested on: bedstraw (Galium aparine)
# Method in brief: (§1)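 Compounds in a surfactant-containing, non-phytotoxic solvent blend are applied to freshly planted seed (preemergence) and, concurrently, to seedlings of 2 to 18 cm at 1–4 leaves (postemergence). Plants stay in the greenhouse twelve to sixteen days and are then scored visually from 0 (no effect) to 10 (complete control).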
# [2] = tested on: crabgrass (Digitaria sanguinalis)
# Method in brief: as §1
# [3] = tested on: sugar beet (Beta vulgaris)
# Method in brief: as §1
# [4] = tested on: giant foxtail (Setaria faberii)
# Method in brief: as §1
# [5] = tested on: cocklebur (Xanthium strumarium)
# Method in brief: as §1
# [6] = tested on: wheat (Triticum aestivum)
# Method in brief: as §1
# [7] = tested on: purple nutsedge (Cyperus rotundus)
# Method in brief: as §1
# [8] = tested on: momingglory (Ipomoea hederacea)
# Method in brief: as §1
# soybean (Glycine max) = tested on: soybean (Glycine max)
# Method in brief: as §1
# rape (Brassica napus) = tested on: rape (Brassica napus)
# Method in brief: as §1
# [9] = tested on: velvetleaf (Abutilon theophrasti)
# Method in brief: as §1
# corn (Zea mays) = tested on: corn (Zea mays)
# Method in brief: as §1
# [10] = tested on: pigweed (Amaranthus retroflexus)
# Method in brief: as §1
# [11] = tested on: broadleaf signalgrass (Brachiaria decumbens)
# Method in brief: as §1
# [12] = Preemergence, Rate 62 g/ha, scale of 0 to 10
smiles,measurement,setting,value
Cc1cnc(-n2ccc(C(F)(F)F)n2)nc1C(=O)c1cccc(C(F)(F)F)c1 [Compound 59],"Plant response rating, Bedstraw",[1]; [12],3
same,Bedstraw plant response rating,"[1]; Rate 62 g/ha, Postemergence",7
same,Bedstraw plant response rating,"[1]; Rate 125 g/ha, Postemergence",7
same,"Plant response rating, Bedstraw","[1]; Rate 125 g/ha, Preemergence",6
same,"Plant response rating, Bedstraw","[1]; Rate 250 g/ha, Postemergence",8
same,"Plant response rating, Bedstraw","[1]; Rate 250 g/ha, Preemergence",6
same,"Plant response rating, Bedstraw","[1]; Rate 500 g/ha, Postemergence",9
same,"Plant response rating, Bedstraw","[1]; Rate 500 g/ha, Preemergence",8
same,"Plant response rating, Crabgrass",[2]; [12],8
same,Crabgrass plant response rating,"[2]; Rate 62 g/ha, Postemergence",6
same,Crabgrass plant response rating,"[2]; Rate 125 g/ha, Postemergence",6
same,"Plant response rating, Crabgrass","[2]; Rate 125 g/ha, Preemergence",9
same,"Plant response rating, Crabgrass","[2]; Rate 250 g/ha, Postemergence",8
same,"Plant response rating, Crabgrass","[2]; Rate 250 g/ha, Preemergence",10
same,"Plant response rating, Crabgrass","[2]; Rate 500 g/ha, Postemergence",9
same,"Plant response rating, Crabgrass","[2]; Rate 500 g/ha, Preemergence",10
same,"Plant response rating, Sugarbeets",[3]; [12],10
same,Sugarbeets plant response rating,"[3]; Rate 62 g/ha, Postemergence",9
same,Sugarbeets plant response rating,"[3]; Rate 125 g/ha, Postemergence",9
same,"Plant response rating, Sugarbeets","[3]; Rate 125 g/ha, Preemergence",10
same,"Plant response rating, Sugarbeets","[3]; Rate 250 g/ha, Postemergence",9
same,"Plant response rating, Sugarbeets","[3]; Rate 250 g/ha, Preemergence",10
same,"Plant response rating, Sugarbeets","[3]; Rate 500 g/ha, Postemergence",9
same,"Plant response rating, Sugarbeets","[3]; Rate 500 g/ha, Preemergence",10
same,"Plant response rating, Giant foxtail",[4]; [12],8
same,Giant foxtail plant response rating,"[4]; Rate 62 g/ha, Postemergence",6
same,Giant foxtail plant response rating,"[4]; Rate 125 g/ha, Postemergence",6
same,"Plant response rating, Giant foxtail","[4]; Rate 125 g/ha, Preemergence",10
same,"Plant response rating, Giant foxtail","[4]; Rate 250 g/ha, Postemergence",8
same,"Plant response rating, Giant foxtail","[4]; Rate 250 g/ha, Preemergence",10
same,"Plant response rating, Giant foxtail","[4]; Rate 500 g/ha, Postemergence",9
same,"Plant response rating, Giant foxtail","[4]; Rate 500 g/ha, Preemergence",10
same,"Plant response rating, Cocklebur",[5]; [12],0
same,Cocklebur plant response rating,"[5]; Rate 62 g/ha, Postemergence",4
same,Cocklebur plant response rating,"[5]; Rate 125 g/ha, Postemergence",7
same,"Plant response rating, Cocklebur","[5]; Rate 125 g/ha, Preemergence",2
same,"Plant response rating, Cocklebur","[5]; Rate 250 g/ha, Postemergence",7
same,"Plant response rating, Cocklebur","[5]; Rate 500 g/ha, Postemergence",8
same,"Plant response rating, Cocklebur","[5]; Rate 500 g/ha, Preemergence",2
same,"Plant response rating, Wheat",[6]; [12],1
same,Wheat plant response rating,"[6]; Rate 62 g/ha, Postemergence",1
same,Wheat plant response rating,"[6]; Rate 125 g/ha, Postemergence",2
same,"Plant response rating, Wheat","[6]; Rate 125 g/ha, Preemergence",2
same,"Plant response rating, Wheat","[6]; Rate 250 g/ha, Postemergence",2
same,"Plant response rating, Wheat","[6]; Rate 250 g/ha, Preemergence",3
same,"Plant response rating, Wheat","[6]; Rate 500 g/ha, Postemergence",3
same,"Plant response rating, Wheat","[6]; Rate 500 g/ha, Preemergence",5
same,"Plant response rating, Nutsedge",[7]; [12],0
same,Nutsedge plant response rating,"[7]; Rate 62 g/ha, Postemergence",0
same,Nutsedge plant response rating,"[7]; Rate 125 g/ha, Postemergence",0
same,"Plant response rating, Nutsedge","[7]; Rate 125 g/ha, Preemergence",0
same,"Plant response rating, Nutsedge","[7]; Rate 250 g/ha, Postemergence",0
same,"Plant response rating, Nutsedge","[7]; Rate 250 g/ha, Preemergence",0
same,"Plant response rating, Nutsedge","[7]; Rate 500 g/ha, Postemergence",0
same,"Plant response rating, Nutsedge","[7]; Rate 500 g/ha, Preemergence",0
same,"Plant response rating, Morningglory",[8]; [12],6
same,Morningglory plant response rating,"[8]; Rate 62 g/ha, Postemergence",7
same,"Plant response rating, Morningglory","[8]; Rate 125 g/ha, Preemergence",6
same,"Plant response rating, Morningglory","[8]; Rate 250 g/ha, Postemergence",10
same,"Plant response rating, Morningglory","[8]; Rate 250 g/ha, Preemergence",10
same,"Plant response rating, Morningglory","[8]; Rate 500 g/ha, Postemergence",10
same,"Plant response rating, Morningglory","[8]; Rate 500 g/ha, Preemergence",10
same,"Plant response rating, Soybean",soybean (Glycine max); [12],1
same,Soybean plant response rating,"soybean (Glycine max); Rate 62 g/ha, Postemergence",6
same,Soybean plant response rating,"soybean (Glycine max); Rate 125 g/ha, Postemergence",7
same,"Plant response rating, Soybean","soybean (Glycine max); Rate 125 g/ha, Preemergence",2
same,"Plant response rating, Soybean","soybean (Glycine max); Rate 250 g/ha, Postemergence",8
same,"Plant response rating, Soybean","soybean (Glycine max); Rate 250 g/ha, Preemergence",2
same,"Plant response rating, Soybean","soybean (Glycine max); Rate 500 g/ha, Postemergence",9
same,"Plant response rating, Soybean","soybean (Glycine max); Rate 500 g/ha, Preemergence",4
same,"Plant response rating, Rape",rape (Brassica napus); [12],5
same,Rape plant response rating,"rape (Brassica napus); Rate 62 g/ha, Postemergence",6
same,Rape plant response rating,"rape (Brassica napus); Rate 125 g/ha, Postemergence",7
same,"Plant response rating, Rape","rape (Brassica napus); Rate 125 g/ha, Preemergence",7
same,"Plant response rating, Rape","rape (Brassica napus); Rate 250 g/ha, Postemergence",7
same,"Plant response rating, Rape","rape (Brassica napus); Rate 250 g/ha, Preemergence",7
same,"Plant response rating, Rape","rape (Brassica napus); Rate 500 g/ha, Postemergence",7
same,"Plant response rating, Rape","rape (Brassica napus); Rate 500 g/ha, Preemergence",10
same,"Plant response rating, Velvetleaf",[9]; [12],7
same,Velvetleaf plant response rating,"[9]; Rate 62 g/ha, Postemergence",6
same,Velvetleaf plant response rating,"[9]; Rate 125 g/ha, Postemergence",7
same,"Plant response rating, Velvetleaf","[9]; Rate 125 g/ha, Preemergence",7
same,"Plant response rating, Velvetleaf","[9]; Rate 250 g/ha, Postemergence",7
same,"Plant response rating, Velvetleaf","[9]; Rate 250 g/ha, Preemergence",9
same,"Plant response rating, Velvetleaf","[9]; Rate 500 g/ha, Postemergence",8
same,"Plant response rating, Velvetleaf","[9]; Rate 500 g/ha, Preemergence",10
same,"Plant response rating, Corn",corn (Zea mays); [12],0
same,Corn plant response rating,"corn (Zea mays); Rate 62 g/ha, Postemergence",1
same,Corn plant response rating,"corn (Zea mays); Rate 125 g/ha, Postemergence",2
same,"Plant response rating, Corn","corn (Zea mays); Rate 125 g/ha, Preemergence",1
same,"Plant response rating, Corn","corn (Zea mays); Rate 250 g/ha, Postemergence",3
same,"Plant response rating, Corn","corn (Zea mays); Rate 250 g/ha, Preemergence",1
same,"Plant response rating, Corn","corn (Zea mays); Rate 500 g/ha, Postemergence",4
same,"Plant response rating, Corn","corn (Zea mays); Rate 500 g/ha, Preemergence",3
same,"Plant response rating, Redroot pigweed",[10]; [12],8
same,Redroot pigweed plant response rating,"[10]; Rate 62 g/ha, Postemergence",8
same,Redroot pigweed plant response rating,"[10]; Rate 125 g/ha, Postemergence",8
same,"Plant response rating, Redroot pigweed","[10]; Rate 125 g/ha, Preemergence",10
same,"Plant response rating, Redroot pigweed","[10]; Rate 250 g/ha, Postemergence",8
same,"Plant response rating, Redroot pigweed","[10]; Rate 250 g/ha, Preemergence",10
same,"Plant response rating, Redroot pigweed","[10]; Rate 500 g/ha, Postemergence",9
same,"Plant response rating, Redroot pigweed","[10]; Rate 500 g/ha, Preemergence",10
same,B. signalgrass plant response rating,"[11]; Rate 62 g/ha, Postemergence",2
same,B. signalgrass plant response rating,"[11]; Rate 62 g/ha, Preemergence",7
same,B. signalgrass plant response rating,"[11]; Rate 125 g/ha, Postemergence",2
same,"Plant response rating, B. signalgrass","[11]; Rate 125 g/ha, Preemergence",9
same,"Plant response rating, B. signalgrass","[11]; Rate 250 g/ha, Postemergence",2
same,"Plant response rating, B. signalgrass","[11]; Rate 250 g/ha, Preemergence",9
same,"Plant response rating, B. signalgrass","[11]; Rate 500 g/ha, Postemergence",3
same,"Plant response rating, B. signalgrass","[11]; Rate 500 g/ha, Preemergence",9
